{"source": "patent US20100227836A1", "about": "“PARENTERAL ADMINISTRATION OF A GLUCOSAMINE” (THE JOHNS HOPKINS UNIVERSITY, priority 2008, published 2010)", "key": {"[1]": {"conditions": "following nasogastric intake of 20 mg/kg/day of GlcN; cited from earlier work"}, "[2]": {"system": "surgically manipulated rat knees (osteoarthritis)", "test": "Experimental model of osteoarthritis in rodents, intraarticular injection, cartilage histology (safranin-O)", "assay_type": "in vivo", "conditions": "2 mM, transcutaneous intraarticular injections weekly for three weeks", "method": "For example, in an experimental model of osteoarthritis in rodents, rat knees were surgically manipulated to obtain histological manifestations of osteoarthritis (Janusz et al., Osteoarth, Cart. 10:785-791, 2002). Four weeks […], injured joints were untreated, or treated with a PBS control, a 2 mM glucosamine solution or a 1:1 mixture of 2 mM glucosamine solution and CSMA-aldehyde (chondroitin sulfate methacrylate) (Wang et al., Nat. Mater. 6:385-392, 2007). Treatments were transcutaneous, intraarticular injections weekly for three weeks."}, "[3]": {"system": "transforming growth factor β1 (TGF-β1) expression", "conditions": "cited from earlier work"}, "[4]": {"system": "cell growth, matrix production and gene expression", "conditions": "narrow window; cited from earlier work"}}, "data": [{"smiles": "N[C@H]1C(O)O[C@H](CO)[C@@H](O)[C@@H]1O", "note": "(stereo partly drawn) [glucosamine, Glucosamine]", "values": [{"measurement": "level in serum", "setting": "[1]", "value": "~6", "unit": "µM"}, {"measurement": "level in synovial fluid", "setting": "[1]", "value": "~0.5", "unit": "µM"}, {"measurement": "cartilage development and organization across treatment groups", "setting": "[2]", "value": "best developed and well organized"}, {"measurement": "cartilage development in treated joints (histology, safranin-O)", "setting": "[2]; four weeks after surgery, compared to PBS control and untreated control joints", "value": "Florid cartilage development"}, {"measurement": "TGF-β1 expression", "setting": "[3]", "value": "upregulated"}, {"measurement": "concentration window with beneficial effect on cell growth, matrix production and gene expression", "setting": "[4]", "value": "no more than 2 mM"}]}]}
